± gives the expanded uncertainty stated by the source.
Details: 101.33 kPa, Liquid, Pycnometric method

| SMILES | mass density (273.15 K) | mass density (283.15 K) |
| --- | --- | --- |
| CCOCCOCCOCC [diethylene glycol diethyl ether] | 926.4 ± 4.1 kg/m3 | 916.3 ± 4 kg/m3 |
| CCCCOCCOC(C)=O [2-butoxyethyl acetate] | 960.4 ± 5.5 kg/m3 | 950.4 ± 5.4 kg/m3 |
| COCC(C)OC(C)=O (configuration not stated) [1-methoxy-2-propyl acetate] | 989.2 ± 4.4 kg/m3 | 978.2 ± 4.3 kg/m3 |
| COCCOC(C)=O [2-methoxyethyl ethanoate] | 1027.8 ± 5.8 kg/m3 | 1016.8 ± 5.8 kg/m3 |
| COC(C)CCOC(C)=O (configuration not stated) [3-methoxybutyl acetate] | 975.3 ± 4.3 kg/m3 | 965.3 ± 4.3 kg/m3 |
| CCOCCOCCOC(C)=O [2-(2-ethoxyethoxy)ethyl acetate] | 1030 ± 5.9 kg/m3 | 1020 ± 5.8 kg/m3 |

From the NIST ThermoML archive (doi:10.1016/j.jct.2018.03.009)
